Source: BigSolDB 2.1

CCCc1nc(C(C)(C)O)c(C(=O)OCC)n1Cc1ccc(-c2ccccc2-c2nnnn2C(c2ccccc2)(c2ccccc2)c2ccccc2)cc1
solubility (mole fraction)
Conditions | 278.15 K | 283.15 K | 288.15 K | 293.15 K | 298.15 K | 303.15 K | 308.15 K | 313.15 K | 318.15 K
in DMAc | 0.00501 | 0.00574 | 0.00655 | 0.00756 | 0.00872 | 0.01 | 0.0114 | 0.0129 | 0.0148
in DMF | 0.00117 | 0.00148 | 0.00186 | 0.00229 | 0.0028 | 0.00337 | 0.004 | 0.00471 | 0.00553
in acetone | 0.000617 | 0.000854 | 0.00115 | 0.00154 | 0.00197 | 0.00242 | 0.0029 | 0.0035 | 0.00417
in acetonitrile | 0.00027 | 0.000315 | 0.000373 | 0.00044 | 0.000513 | 0.000597 | 0.000689 | 0.00079 | 0.000901
in cyclohexanone | 0.00729 | 0.00844 | 0.00967 | 0.0112 | 0.0128 | 0.0147 | 0.0166 | 0.0187 | 0.0211
in ethanol | 8.35e-05 | 0.000102 | 0.000124 | 0.000147 | 0.000174 | 0.000206 | 0.000239 | 0.000277 | 0.000318
in ethyl acetate | 0.00177 | 0.0021 | 0.00256 | 0.00308 | 0.00372 | 0.00445 | 0.00523 | 0.00607 | 0.00699
in isobutanol | 0.00012 | 0.000145 | 0.000177 | 0.000216 | 0.000255 | 0.000302 | 0.000352 | 0.000408 | 0.000472
in isopropanol | 5.42e-05 | 6.87e-05 | 8.5e-05 | 0.000102 | 0.000122 | 0.000144 | 0.00017 | 0.000197 | 0.000228
in methanol | 4.18e-05 | 5.35e-05 | 6.64e-05 | 8.11e-05 | 9.59e-05 | 0.000112 | 0.000131 | 0.000152 | 0.000175
in n-butanol | 0.000177 | 0.000211 | 0.000253 | 0.000298 | 0.000348 | 0.000401 | 0.000458 | 0.000521 | 0.000588
in n-propanol | 0.000144 | 0.000175 | 0.000213 | 0.000253 | 0.000298 | 0.000346 | 0.000397 | 0.000454 | 0.000519
in toluene | 0.00257 | 0.0032 | 0.00403 | 0.00503 | 0.00608 | 0.00738 | 0.00882 | 0.0104 | 0.0124
